The values that follow come from ChEMBL document CHEMBL1143464, “Trifluoromethyl group as a pharmacophore: effect of replacing a CF3 group on binding and agonist activity of a glucocorticoid receptor ligand” (Bioorg Med Chem Lett, 2005).

SMILES strings stand for the structures.

The target in test [1] is T1, Progesterone receptor (Homo sapiens, UniProt P06401).
T1 sequence (P06401 whole entry): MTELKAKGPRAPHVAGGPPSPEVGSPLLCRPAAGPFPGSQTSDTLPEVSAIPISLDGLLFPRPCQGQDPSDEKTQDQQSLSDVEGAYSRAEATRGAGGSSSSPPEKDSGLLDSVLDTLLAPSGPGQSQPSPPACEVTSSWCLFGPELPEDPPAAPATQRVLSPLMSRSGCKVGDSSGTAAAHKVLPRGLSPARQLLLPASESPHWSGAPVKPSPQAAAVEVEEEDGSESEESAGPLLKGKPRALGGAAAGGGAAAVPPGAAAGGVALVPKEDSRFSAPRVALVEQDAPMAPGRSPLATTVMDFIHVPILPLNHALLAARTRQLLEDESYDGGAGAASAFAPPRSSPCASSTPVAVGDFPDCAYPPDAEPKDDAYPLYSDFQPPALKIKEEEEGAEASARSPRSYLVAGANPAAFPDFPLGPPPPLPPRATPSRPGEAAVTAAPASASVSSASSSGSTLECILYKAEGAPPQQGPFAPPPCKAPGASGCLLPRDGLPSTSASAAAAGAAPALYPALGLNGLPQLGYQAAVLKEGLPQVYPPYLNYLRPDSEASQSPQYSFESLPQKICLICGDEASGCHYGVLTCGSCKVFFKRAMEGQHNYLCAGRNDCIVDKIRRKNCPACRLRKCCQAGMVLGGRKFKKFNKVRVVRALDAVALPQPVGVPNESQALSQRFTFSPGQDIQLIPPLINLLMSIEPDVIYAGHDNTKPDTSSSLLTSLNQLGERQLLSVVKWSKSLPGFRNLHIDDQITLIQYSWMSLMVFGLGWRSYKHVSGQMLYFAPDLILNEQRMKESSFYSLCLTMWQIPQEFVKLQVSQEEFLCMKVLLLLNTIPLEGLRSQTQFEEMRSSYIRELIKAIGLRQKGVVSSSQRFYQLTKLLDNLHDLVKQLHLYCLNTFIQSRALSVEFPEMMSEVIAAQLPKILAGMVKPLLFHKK
Description: Binding affinity towards progesterone receptor using fluorescence polarization competitive binding assay.

The target in test [2] is T2, Glucocorticoid receptor (Homo sapiens, UniProt P04150).
T2 sequence (P04150 whole entry): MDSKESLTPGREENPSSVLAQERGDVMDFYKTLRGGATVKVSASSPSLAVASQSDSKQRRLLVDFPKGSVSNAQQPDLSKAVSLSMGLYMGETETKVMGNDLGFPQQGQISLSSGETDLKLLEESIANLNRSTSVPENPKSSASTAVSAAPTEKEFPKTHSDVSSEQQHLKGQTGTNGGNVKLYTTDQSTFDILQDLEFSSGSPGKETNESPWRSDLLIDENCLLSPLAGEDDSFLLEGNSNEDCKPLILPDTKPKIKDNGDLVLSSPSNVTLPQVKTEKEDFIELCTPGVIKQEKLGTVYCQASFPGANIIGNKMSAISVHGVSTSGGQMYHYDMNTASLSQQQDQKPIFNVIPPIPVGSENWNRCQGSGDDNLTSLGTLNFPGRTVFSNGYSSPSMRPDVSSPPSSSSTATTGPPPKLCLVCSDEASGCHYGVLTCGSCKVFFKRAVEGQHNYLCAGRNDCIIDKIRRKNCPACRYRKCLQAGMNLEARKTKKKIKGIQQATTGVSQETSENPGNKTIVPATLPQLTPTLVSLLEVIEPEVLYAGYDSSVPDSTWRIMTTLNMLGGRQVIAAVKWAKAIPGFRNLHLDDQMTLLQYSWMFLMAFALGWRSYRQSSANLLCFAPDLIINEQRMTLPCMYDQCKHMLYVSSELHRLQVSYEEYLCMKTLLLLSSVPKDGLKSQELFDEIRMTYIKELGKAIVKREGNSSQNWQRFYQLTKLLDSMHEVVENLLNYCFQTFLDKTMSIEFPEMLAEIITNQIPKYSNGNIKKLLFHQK
Description: Binding affinity towards glucocorticoid receptor using fluorescence polarization competitive binding assay.

In test [3] the target is T3, Mineralocorticoid receptor (Homo sapiens, UniProt P08235).
T3 sequence (P08235 whole entry): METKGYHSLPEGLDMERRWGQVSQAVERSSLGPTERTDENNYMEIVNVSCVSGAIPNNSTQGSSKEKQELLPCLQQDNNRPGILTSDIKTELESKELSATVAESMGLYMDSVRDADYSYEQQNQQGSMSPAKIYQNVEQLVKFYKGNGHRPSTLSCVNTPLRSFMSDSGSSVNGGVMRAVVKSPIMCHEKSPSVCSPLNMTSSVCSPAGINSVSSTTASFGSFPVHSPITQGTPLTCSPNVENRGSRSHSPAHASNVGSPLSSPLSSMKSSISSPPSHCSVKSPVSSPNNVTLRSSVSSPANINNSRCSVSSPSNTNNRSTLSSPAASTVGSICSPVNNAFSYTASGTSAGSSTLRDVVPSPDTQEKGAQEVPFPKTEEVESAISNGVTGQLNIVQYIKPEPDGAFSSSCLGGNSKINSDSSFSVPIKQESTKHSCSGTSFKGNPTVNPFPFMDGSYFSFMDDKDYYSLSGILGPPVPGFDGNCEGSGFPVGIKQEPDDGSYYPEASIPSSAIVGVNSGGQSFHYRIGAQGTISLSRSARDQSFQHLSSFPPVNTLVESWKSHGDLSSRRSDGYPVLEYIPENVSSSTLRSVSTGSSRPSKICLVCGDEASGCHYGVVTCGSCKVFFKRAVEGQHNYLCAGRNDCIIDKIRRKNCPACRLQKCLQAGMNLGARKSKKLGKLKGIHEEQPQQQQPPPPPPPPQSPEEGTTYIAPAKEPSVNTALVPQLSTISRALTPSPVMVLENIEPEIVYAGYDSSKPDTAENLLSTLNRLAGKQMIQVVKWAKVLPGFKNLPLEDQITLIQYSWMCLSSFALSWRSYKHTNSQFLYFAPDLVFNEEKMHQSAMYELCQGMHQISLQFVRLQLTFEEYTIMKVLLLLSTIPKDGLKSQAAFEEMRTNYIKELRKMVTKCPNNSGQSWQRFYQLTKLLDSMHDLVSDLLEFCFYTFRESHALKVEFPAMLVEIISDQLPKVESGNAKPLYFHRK
Description: Binding affinity towards mineralocorticoid receptor using fluorescence polarization competitive binding assay.

Test [4] deals with T2, Glucocorticoid receptor. Description: Effective concentration against inhibition of Dexamethasone induced glucocorticoid receptor transactivation of mouse mammary tumor virus luciferase gene in HeLa cells. The class given is cell-based.

For the molecule `CC(C)(CC(O)(Cc1cc(O)cc(O)c1)C(=O)Nc1ccc2c(c1)COC2=O)c1ccccc1` (configuration not stated), the IC50 in test [1] is 160 nM; in test [2], greater than 2000 nM.
For the molecule `CC(C)(CC(O)C(=O)Nc1ccc2c(c1)COC2=O)c1ccccc1` (configuration not stated), the IC50 in test [1] and in test [2] was greater than 2000 nM throughout.
`CC(C)(CC(O)(CC1CCCCC1)C(=O)Nc1ccc2c(c1)COC2=O)c1cc(F)ccc1O` (configuration not stated): the IC50 in test [1] was 42 nM; in test [3] it was 140 nM; in test [2] it was 20 nM. In addition, in test [4], the EC50 was found to be 130 nM.
On to `Cc1noc(=O)c2ccc(NC(=O)C(O)(CC3CCCCC3)CC(C)(C)c3ccccc3)cc12` (configuration not stated), for which the results for the IC50 in test [1] and in test [2] were 40 nM and 9 nM, respectively.
On to `CC(C)(CC(O)(CC1CCCCC1)C(=O)Nc1ccc2c(c1)COC2=O)c1ccccc1` (single isomer, unassigned), for which the IC50 in test [1] came to 35 nM; in test [2], 9 nM.
Turning to `CC(C)(C)c1ccc(CC(O)(CC(C)(C)c2ccccc2)C(=O)Nc2ccc3c(c2)COC3=O)cc1` (configuration not stated), the IC50 worked out at 330 nM in test [1], 175 nM in test [3] and 72 nM in test [2]. For the same molecule, the midpoint of the response in test [4], the EC50, lay at 760 nM.
As to `COc1ccc(F)cc1C(C)(C)CC(O)(C(=O)Nc1ccc2c(c1)COC2=O)C(F)(F)F` (configuration not stated), the IC50 in test [1] was determined as 85 nM; in test [2], 230 nM.
For `CC(C)(CC(O)(Cc1ccccn1)C(=O)Nc1ccc2c(c1)COC2=O)c1ccccc1` (configuration not stated) the same measures were 400 nM and 760 nM.
Turning to `CC(C)(CC(O)(C(=O)Nc1ccc2c(c1)COC2=O)c1ccccc1)c1ccccc1` (configuration not stated), the IC50 in test [1] turned out to be 240 nM; in test [2], 460 nM.
In the case of `Cc1ccccc1CC(O)(CC(C)(C)c1cc(F)ccc1O)C(=O)Nc1ccc2c(c1)COC2=O` (configuration not stated), the IC50 is 36 nM in test [1] and 48 nM in test [2].
`Cc1noc(=O)c2ccc(NC(=O)C(O)(CC3CCCCC3)CC(C)(C)c3cc(F)ccc3O)cc12` (configuration not stated): the IC50 in test [1] was 35 nM; in test [3] it was 104 nM; in test [2], 7 nM. In test [4], this molecule gave an EC50 of 120 nM.
`CC(C)(CC(O)(CCc1ccccc1)C(=O)Nc1ccc2c(c1)COC2=O)c1ccccc1` (configuration not stated): the IC50 in test [1] came to 59 nM; in test [2], 57 nM.
As for `CC(C)(CC(O)(Cc1ccccc1)C(=O)Nc1ccc2c(c1)COC2=O)c1cc(F)ccc1O` (configuration not stated), the values for the IC50 in test [1], in test [3] and in test [2] were 35 nM, 190 nM and 60 nM, respectively. Besides, the response in test [4] was half-maximal at 420 nM (EC50).
With `CC(C)(CC(O)(C(=O)Nc1ccc2c(c1)COC2=O)C(F)(F)F)c1ccccc1` (configuration not stated), the IC50 in test [1] came to 36 nM; in test [3] it was 215 nM; in test [2] it was 79 nM. In addition, in test [4], it took 150 nM to reach a half-maximal effect (EC50).
For `CC(C)(CC(O)(Cc1cccc(O)c1)C(=O)Nc1ccc2c(c1)COC2=O)c1ccccc1` (configuration not stated), the half-inhibitory concentration (IC50) in test [1] is 44 nM; in test [2] it was 120 nM.
Turning to `CC(C)(CC(O)(CC1CCCCC1)C(=O)Nc1ccc2c(c1)COC2=O)c1ccccc1` (stereo in doubt; 6), the figures for the IC50 in test [1], in test [3] and in test [2] were 19 nM, 170 nM and 9 nM, respectively. Further, in test [4], it took 140 nM to reach a half-maximal effect (EC50).
For `CC(C)C(O)(CC(C)(C)c1ccccc1)C(=O)Nc1ccc2c(c1)COC2=O` (configuration not stated), in that order: 210 nM, 315 nM, 200 nM and 620 nM.
On to `Cc1noc(=O)c2ccc(NC(=O)C(O)(Cc3ccccc3)CC(C)(C)c3cc(F)ccc3O)cc12` (configuration not stated), for which the IC50 in test [1] was 32 nM; in test [3] it was 104 nM; in test [2], 8 nM. Besides, the EC50 in test [4] worked out at 130 nM.
Take `CC(C)(CC(Cc1ccccc1)C(=O)Nc1ccc2c(c1)COC2=O)c1ccccc1` (configuration not stated): the IC50 in test [1] is 2000 nM; in test [2] it was greater than 2000 nM.
As for `Cc1cc(C)cc(CC(O)(CC(C)(C)c2cc(F)ccc2O)C(=O)Nc2ccc3c(c2)COC3=O)c1` (configuration not stated), the IC50 amounted to 51 nM in test [1] and 470 nM in test [2].
For `COc1ccc(F)cc1C(C)(C)CC(O)(CNc1ccc2c(c1)COC2=O)Cc1ccccc1` (configuration not stated), the results for the IC50 in test [1], in test [3] and in test [2] were 80 nM, 195 nM and 81 nM, respectively. Also, the EC50 in test [4] was 610 nM.
As to `Cc1cccc(CC(O)(CC(C)(C)c2cc(F)ccc2O)C(=O)Nc2ccc3c(c2)COC3=O)c1` (configuration not stated), the values for the IC50 in test [1] and in test [2] were 34 nM and 52 nM, respectively.
In the case of `CC(C)(CC(O)(Cc1ccc(-c2ccccc2)cc1)C(=O)Nc1ccc2c(c1)COC2=O)c1ccccc1` (configuration not stated), the IC50 in test [1] was found to be 180 nM; in test [2], 740 nM.
Regarding `Cc1noc(=O)c2ccc(NC(=O)C(O)(Cc3ccccc3)CC(C)(C)c3ccccc3)cc12` (configuration not stated), the IC50 in test [1] was 30 nM; in test [2], 7 nM.
On to `CC(C)(CC(O)(Cc1ccccc1O)C(=O)Nc1ccc2c(c1)COC2=O)c1ccccc1` (configuration not stated), for which the IC50 in test [1] came out at 47 nM; in test [2], 61 nM.
Regarding `CC(C)(CC(O)(CC1CCCCC1)C(=O)Nc1ccc2c(c1)COC2=O)c1ccccc1` (stereo in doubt), the IC50 was determined as 210 nM in test [1] and 320 nM in test [2].
Consider `CC(C)(CC(O)(Cc1ccc2ccccc2c1)C(=O)Nc1ccc2c(c1)COC2=O)c1ccccc1` (configuration not stated), for which the IC50 in test [1] is 48 nM; in test [2], 110 nM.
For `COc1ccc(F)cc1C(C)(C)CC(O)(Cc1ccccc1)C(=O)Nc1ccc2c(c1)COC2=O` (configuration not stated), in that order: 35 nM and 52 nM.
In the case of `CC(O)(CC(C)(C)c1ccccc1)C(=O)Nc1ccc2c(c1)COC2=O` (configuration not stated), the IC50 was determined as 85 nM in test [1], 60 nM in test [3] and 370 nM in test [2]. The molecule further showed an EC50 in test [4] of 2370 nM.
With `CC(C)(CC(O)(Cc1ccccc1)C(=O)Nc1ccc2c(c1)COC2=O)c1ccccc1` (configuration not stated), the IC50 in test [1] worked out at 30 nM; in test [3] it was 160 nM; in test [2], 13 nM. In test [4], it took 205 nM to reach a half-maximal effect (EC50).
